Patent US20240400584A1, “COMPOUNDS AND METHODS FOR MODULATING SPLICING” (REMIX THERAPEUTICS INC., priority 2021, published 2024)
Where two headings read alike, the source gives them in different places.

Columns and labels:
HTT [1] = experiment: RT-qPCR splicing assay, HTT AJ/CJ mRNA; assay type: cell-based, human; conditions: A673 or K562 cells; for IC50: decrease in canonical junction mRNA; for AC50: increase in alternative junction mRNA
Procedure: (§1) Compounds described herein were used to modulate RNA transcript abundance in cells. The expression of a target mRNA was measured by detecting the formation of an exon-exon junction in the canonical transcript (CJ). A compound mediated exon-inclusion event was detected by observing an increase in formation OF A new junction with an alternative exon (AJ). Real-time qPCR assays were used to detect these splicing switches and interrogate the potency of various compounds towards different target Genes. A high-throughput real time quantitative PCR (RT-qPCR) assay was developed to measure these two isoforms of the mRNA (CJ and AJ) for exemplary genes, such as HTT, SMN2, and MYB, together with a control housekeeping gene, GAPDH or GUSB or PPIA, used for normalization. Briefly, the A673 or K562 cell line was treated with various compounds described herein (e.g., compounds of Formula (i)). After treatment, the levels of the HTT, MYB, or SMN2 mRNA targets were determined from each sample of cell lysate by cDNA synthesis followed by qPCR.
(§2) The A673 cell line was cultured in DMEM with 10% FBS. Cells were diluted with full growth media and plated in a 96-well plate (15,000 cells in 100 ul media per well). The plate was incubated at 37° C. with 5% CO2 for 24 hours to allow cells to adhere. An 11-point 3-fold serial dilution of the compounds was made in DMSO then diluted in media in an intermediate plate. Compounds were transferred from the intermediate plate to the cell plate with the top dose at a final concentration of 10 uM in the well. Final DMSO concentration was kept at or below 0.25%. The cell plate was returned to the incubator at 37° C. with 5% CO2 for an additional 24 hours.
(§3) The K562 cell line was cultured in IMDM with 10% FBS. For K562, cells were diluted with full growth media and plated in either a 96-well plate (50,000 cells in 50 uL media per well) or a 384-well plate (8,000-40,000 cells in 45 uL media per well). An 11-point 3-fold serial dilution of the compounds were made in DMSO then diluted in media in an intermediate plate. Compound was transferred from the intermediate plate to the cell plate with the top dose at a final concentration of 10 uM in the well. Final DMSO concentration was kept at or below 0.25%. Final volume was 100 uL for 96-well plate and 50 uL for 384-well plate. The cell plate was then placed in an incubator at 37° C. with 5% CO2 for 24 hours.
(§4) The cells were then gently washed with 50 uL-100 uL Cold Pbs before proceeding to addition of lysis buffer. 30 uL-50 μL of room temperature lysis buffer with DNAse I (and optionally RNAsin) was added to each well. Cells were shaken/mixed thoroughly at room temperature for 5-10 minutes for lysis to take place and then 3 uL-5 μL of room temperature stop solution was added and wells were shaken/mixed again. After 2-5 minutes, the cell lysate plate was transferred to ice for RT-qPCR reaction setup. The lysates could also be frozen at −80° C. for later use.
(§5) In some cases, a direct lysis buffer was used. an appropriate volume of 3× lysis buffer (10 mM tRis, 150 mM NaCl, 1.5%-2.5% Igepal and 0.1-1 U/uL RNAsin, pH 7.4) was directly added to either K562 or A673 cells in media and mixed by pipetting 3 times. The plates were then incubated at room temperature with shaking/rocking for 20-50 minutes to allow for lysis to take place. After this time, the cell lysate plate was transferred to ice to set up for the RT-qPCR reactions. The lysates could also be frozen at −80° C. for later use.
(§6) To set up 10 uL RT-QpcR reactions, cell lysates were transferred to 384-well qPCR plates containing the master mix according to the table below. The plates were sealed, gently vortexed, and spun down before the run. The volumes were adjusted accordingly in some instances where the reaction was carried in 20 µL. The table below summarizes the components of the RT-qPCR reactions:
(§7) The RT-qPCR reaction was performed using a QuantStudio (ThermoFisher) under the following fast cycling conditions. […]

MYB [2] = experiment: RT-qPCR splicing assay, MYB AJ/CJ mRNA; assay type: cell-based; conditions: Homo sapiens, A673 or K562 cells, 24 hours; for IC50: decrease in canonical junction mRNA; for AC50: increase in alternative junction mRNA
Procedure: as §1, §2, §3, §4, §5, §6, §7

HTT [3] = experiment: Gene panel canonical junction qPCR assay, HTT CJ mRNA (Table 7); assay type: cell-based, human; conditions: read-out: HTT CJ mRNA decrease IC50
Procedure: as §1
(§8) The data analysis was performed by first determining the ΔCt vs the housekeeper gene. This ΔCt was then normalized against the DMSO control (ΔΔCt) and converted to RQ (relative quantification) using the 2^(−ΔΔCt) equation. The RQ were then converted to a percentage response by arbitrarily setting an assay window of 3.5 and 4.0 ΔCt for HTT-CJ and MYB-CJ respectively and an assay window of 9 and 3 ΔCt for HTT-AJ and MYB-AJ in 96 well format (50,000 K562 cells/well and 15,000 A673 cells per well) and an assay window of 3 and 4 ΔCt for HTT-CJ and MYB-CJ respectively and an assay window of 5 and 3 ΔCt for HTT-AJ and MYB-AJ respectively in 384 well format (8,000 K562 cells/well example). […] The percentage response was then fitted to the 4 parametric logistic equation to evaluate the concentration dependence of compound treatment. The increase in AJ mRNA is reported as AC50 (compound concentration having 50% response in AJ increase) while the decrease in CJ mRNA levels is reported as IC50 (compound concentration having 50% response in CJ decrease).
(§9) Additional studies were carried out for a larger panel of genes using the protocol provided above. The junction between flanking upstream and downstream exons was used to design canonical junction qPCR assays. At least one of the forward primer, reverse primer or the CY5-labeled 5′ nuclease probe (with 3′ quencher such as ZEN/Iowa Black FQ) was designed to overlap with the exon junction to capture the CJ mRNA transcript. BLAST was used to confirm the specificity of the probeset and parameters such as melting temperature, GC content, amplicon size, and primer dimer formation are considered during their design. Data for the decrease in CJ mRNA levels for four exemplary genes (HTT, SMN2, MYB, and Target C) analyzed in this panel are reported as IC50 (compound concentration having 50% response in CJ decrease).

SMN2 = experiment: Gene panel canonical junction qPCR assay, SMN2 CJ mRNA (Table 7); assay type: cell-based; conditions: Homo sapiens, read-out: SMN2 CJ mRNA decrease IC50
Procedure: as §1, §8, §9

MYB [4] = experiment: Gene panel canonical junction qPCR assay, MYB CJ mRNA (Table 7); assay type: cell-based; conditions: Homo sapiens, read-out: MYB CJ mRNA decrease IC50
Procedure: as §1, §8, §9

Target C = experiment: Gene panel canonical junction qPCR assay, Target C CJ mRNA (Table 7); assay type: cell-based, human; conditions: read-out: Target C CJ mRNA decrease IC50
Procedure: as §1, §8, §9

| SMILES | IC50 (HTT [1]; Homo sapiens, 24 h) [µM] | AC50 (HTT [1]; Homo sapiens, 24 h) [µM] | IC50 (MYB [2]) [µM] | AC50 (MYB [2]) [µM] | IC50 (HTT [3]; Homo sapiens) [µM] | IC50 (SMN2) [µM] | IC50 (MYB [4]) [µM] | IC50 (Target C; Homo sapiens) [µM] | IC50 (HTT [1]; 24 hours) [µM] | AC50 (HTT [1]; 24 hours) [µM] | IC50 (HTT [3]) [µM] | IC50 (Target C) [µM] |
| --- | --- | --- | --- | --- | --- | --- | --- | --- | --- | --- | --- | --- |
| Cc1cc(-c2ccc3c(c2)COc2nc(N4CC[C@H](NC(C)(C)C)C4)ccc2-3)cnn1 (single isomer, unassigned) [Compound 273, N-tert-butyl-1-[8-(6-methylpyridazin-4-yl)-6H-isochromeno[3,4-b]379yrrolid-3-yl]379yrrolidine-3-amine] | > 10 | > 10 | > 10 | > 10 | > 10 | > 10 | > 10 | > 10 |  |  |  |  |
| Cc1cc(-c2ccc3c(c2)COc2nc(N4CC[C@@H](NC(C)(C)C)C4)ccc2-3)cnn1 (single isomer, unassigned) [Compound 274, N-tert-butyl-1-[8-(6-methylpyridazin-4-yl)-6H-isochromeno[3,4-b]379yrrolid-3-yl]379yrrolidine-3-amine] | 1 to 10 | > 10 | > 10 | > 10 | 1 to 10 | 0.1 to 1 | > 10 | > 10 |  |  |  |  |
| CN(c1ccc2c(n1)COc1cc(-n3cccn3)ccc1-2)[C@@H]1C[C@H]2CC[C@@H](C1)N2 [Compound 109] |  |  |  |  |  |  |  |  | 0.1 to 1 | 0.1 to 1 |  |  |
| CN(c1ccc2c(c1)CCOc1cc(-c3cn[nH]c3)ccc1-2)[C@@H]1C[C@H]2CC[C@@H](C1)N2 [Compound 112] |  |  |  |  |  |  |  | > 10 |  |  |  |  |
| CN(c1ccc2c(n1)CCOc1cc(-c3cn[nH]c3)ccc1-2)C1CC(C)(C)NC(C)(C)C1 [Compound 114] | 0.1 to 1 | < 0.1 |  |  | 0.1 to 1 |  |  | < 0.1 |  |  |  |  |
| CN(c1ccc2c(n1)CCOc1cc(-c3cn[nH]c3)ccc1-2)[C@@H]1C[C@H]2CC[C@@H](C1)N2 [Compound 127] | > 10 | > 10 | > 10 | > 10 | > 10 | > 10 | > 10 |  |  |  |  |  |
| CN(c1ccc2c(n1)CCOc1cc(-n3cccn3)ccc1-2)[C@@H]1C[C@H]2CC[C@@H](C1)N2 [Compound 128] | > 10 | > 10 |  |  | > 10 |  |  | > 10 |  |  |  |  |
| c1cc2c(cc1N[C@@H]1C[C@H]3CC[C@@H](C1)N3)CCOc1cc(-c3cn[nH]c3)ccc1-2 [Compound 132] | > 10 | > 10 |  |  | > 10 |  |  | > 10 |  |  |  |  |
| c1cnn(-c2ccc3c(c2)OCc2nc(N[C@@H]4C[C@H]5CC[C@@H](C4)N5)ccc2-3)c1 [Compound 135] |  |  | 1 to 10 | > 10 |  | 1 to 10 | 1 to 10 |  | 1 to 10 | 1 to 10 | 1 to 10 | 1 to 10 |
| c1cnn(-c2ccc3c(c2)OCCc2nc(N[C@@H]4C[C@H]5CC[C@@H](C4)N5)ccc2-3)c1 [Compound 136] | > 10 | > 10 | > 10 | > 10 | > 10 | > 10 | > 10 | > 10 |  |  |  |  |
| CN(c1cnc2c(n1)OCc1cc(-c3cn[nH]c3)ccc1-2)C1CC(C)(C)NC(C)(C)C1 [Compound 138] |  |  |  |  |  |  |  | 1 to 10 | 1 to 10 | 1 to 10 | 1 to 10 |  |
| c1cc2c(cc1-c1cn[nH]c1)OCCc1nc(N[C@@H]3C[C@H]4CC[C@@H](C3)N4)ccc1-2 [Compound 140] | > 10 | > 10 | > 10 | > 10 | > 10 | > 10 | > 10 |  |  |  |  |  |
| CN(c1ccc2c(n1)OCc1cc(-n3cccn3)ccc1-2)[C@H]1[C@@H]2CNC[C@@H]21 [Compound 194] | 1 to 10 | 1 to 10 |  |  | > 10 | > 10 |  | > 10 |  |  |  |  |
| CCN(c1ccc2c(n1)OCc1cc(-n3cccn3)ccc1-2)[C@@H]1C[C@H]2CCC[C@@H](C1)N2 [Compound 195] |  |  | 1 to 10 | > 10 | 0.1 to 1 | 0.1 to 1 | 1 to 10 | 1 to 10 |  |  |  |  |
| c1cnn(-c2ccc3c(c2)COc2nc(N(C4CC4)[C@@H]4C[C@H]5CCC[C@@H](C4)N5)ccc2-3)c1 [Compound 203] | 1 to 10 | 1 to 10 |  |  |  |  |  |  |  |  |  |  |
| c1cnn(-c2ccc3c(c2)COc2nc(N(C4CC4)[C@@H]4C[C@H]5CC[C@@H](C4)N5)ccc2-3)c1 [Compound 205] | 1 to 10 | 0.1 to 1 |  |  |  |  |  |  |  |  |  |  |
| Cc1cc(-c2ccc3c(c2)COc2nc(O[C@@H]4C[C@H]5C[C@@H](C4)N5)ccc2-3)ccn1 [Compound 209] |  |  | 0.1 to 1 | 1 to 10 | 0.1 to 1 | 0.1 to 1 | 0.1 to 1 | 1 to 10 |  |  |  |  |
| c1cc2c(cc1-c1cn[nH]c1)COc1nc(N3CCC34CCCNC4)ccc1-2 (stereo not drawn) [Compound 210] | > 10 |  | > 10 |  |  |  |  |  |  |  |  |  |
| c1cc2c(cc1-c1cn[nH]c1)COc1nc(N3CCC(NC4CC4)C3)ccc1-2 (stereo not drawn) [Compound 211] | < 0.1 |  | 0.1 to 1 |  |  |  |  |  |  |  |  |  |
| CC(C)(C)NC1CCN(c2ccc3c(n2)OCc2cc(-c4cn[nH]c4)ccc2-3)C1 (stereo not drawn) [Compound 212] | < 0.1 |  | 0.1 to 1 |  |  |  |  |  |  |  |  |  |
| CC(C)(C)NC1CCN(c2ccc3c(n2)OCc2cc(-n4cccn4)ccc2-3)C1 (stereo not drawn) [Compound 213] | 0.1 to 1 |  | 1 to 10 |  |  |  |  |  |  |  |  |  |
| c1cnn(-c2ccc3c(c2)COc2nc(N4CCC(NC5CC5)C4)ccc2-3)c1 (stereo not drawn) [Compound 214] | > 10 |  | > 10 |  |  |  |  |  |  |  |  |  |
